Experimental data reported in patent publication US20250230148A1, “CRYSTAL OF FUSED TRICYCLIC DERIVATIVE OR PHARMACEUTICALLY ACCEPTABLE SALT THEREOF” (CHIA TAI TIANQING PHARMACEUTICAL GROUP CO., LTD., priority 2022, published 2025).

Assays:
M2 receptor = M2 receptor (Homo sapiens (Human), UniProt P08172); assay: M2 receptor affinity test (3H-NMS competition); type: binding; conditions: M2 receptor membrane protein, 0.2 nM 3H-NMS
Protocol: M2 receptor is a G protein-coupled receptor. In this experiment, the activity of test compound against the M2 receptor in vitro was assayed by the competition of radioisotope labeled NMS and non-isotope labeled test compound for an M2 binding site.
The M2 receptor membrane protein was prepared at 100 μg/mL by Biology Department of WuXi AppTec, and compound was serially diluted in a 2.5-fold gradient in DMSO to obtain 10 concentrations. Radioisotope 3H-NMS was prepared at 0.2 nM in an assay buffer (10 mM HEPES, 1 mM MgCl2, pH 7.40). In formal testing, the experimental system comprising 1 μL of the test compound, 100 μL of M2 receptor membrane protein and 100 μL of radioisotope was shaken in a shaker at 300 RPM for 2 h at room temperature. A GF/C plate (Perkin Elmer, Cat No. 6055690) was prefoamed with 0.3% PEI, and the membrane proteins in the reaction solution were collected by filtration onto the GF/C plate. The signal values were read by a Perkin Elmer Microbeta2 instrument and the inhibition rate for each concentration point was shown as a percentage.

[1] = Crystal stability under high humidity conditions, TGA after placement; type: physicochemical; conditions: 24 hours
Protocol: • Instrument model: TA Q5000/5500 Thermal Gravimetric Analyzer • Test method: Taking a sample (about 1 to 5 mg) and placing in a TGA aluminum dish for testing, and heating the sample from room temperature to 350° C. at a heating rate of 10° C./min under 10 mL/min N2 conditions.
The crystal form C of the compound of formula (I) was placed under different humidity conditions at room temperature and then tested by TGA to preliminarily evaluate its water content changes under different humidity conditions.

[2] = Dynamic vapor sorption (DVS) test; type: physicochemical
Protocol: • Instrument model: SMS DVS Advantage Dynamic Vapor Sorption Analyzer • Test conditions: Taking a sample (10 to 15 mg) and placing in a DVS sample dish for testing. • Detailed DVS parameters are as follows: • Temperature: 25° C. • Equilibration: dm/dt=0.01%/min (Minimum: 10 min, Maximum: 180 min) • Drying: drying 120 min under 0% RH • RH (%) test gradient: 10% • RH (%) test gradient range: 0% to 90% to 0%.
At the same time, a DVS test was performed on the crystal form C of the compound of formula (I).

[3] = Crystal stability under 94% RH, XRPD after placement; type: physicochemical; conditions: 94% RH at room temperature for 1 to 2 weeks
Protocol: • Instrument model: X' Pert3. • Method: taking a sample of about 10 to 20 mg for XRPD analysis. • Detailed XRPD parameters are as follows: • X-ray source: Cu, kα (Kα1=1.540598 Δ, Kα2=1.544426 Δ, Kα2/Kα1 intensity ratio: 0.5) • Tube voltage: 45 kV, tube current: 40 mA • Divergence slit: fixed ⅛° • First seller slit: 0.04 rad, Second soller slit: 0.04 rad • Receiving slit: none, Anti-scatter slit: 7.5 mm • Measurement time: 5 min • scan range: 3 to 40° • Step width angle: 0.0263° • Step length: 46.665 seconds • Rotation speed of sample plate: 60 rpm
The crystal form E of the compound of formula (I) was placed under 94% RH at room temperature for 1 to 2 weeks and then subjected to XRPD testing to evaluate its solid stability in the high humidity environment.

Sequence of M2 receptor (P08172 whole entry): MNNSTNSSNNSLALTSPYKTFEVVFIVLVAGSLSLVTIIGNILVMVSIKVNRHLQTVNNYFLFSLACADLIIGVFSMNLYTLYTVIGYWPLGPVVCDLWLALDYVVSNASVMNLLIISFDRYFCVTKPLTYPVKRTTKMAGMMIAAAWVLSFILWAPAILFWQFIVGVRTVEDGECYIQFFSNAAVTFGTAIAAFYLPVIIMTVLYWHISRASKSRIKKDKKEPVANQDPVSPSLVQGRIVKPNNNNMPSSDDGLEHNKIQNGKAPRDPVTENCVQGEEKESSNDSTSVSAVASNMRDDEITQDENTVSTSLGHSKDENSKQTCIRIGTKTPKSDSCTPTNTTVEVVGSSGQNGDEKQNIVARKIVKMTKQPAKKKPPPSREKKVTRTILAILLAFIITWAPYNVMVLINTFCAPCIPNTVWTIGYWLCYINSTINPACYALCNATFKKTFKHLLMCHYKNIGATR

## CN(CCCn1nnc2cc(CNC[C@H](O)c3ccc(O)c4[nH]c(=O)ccc34)c3c(c21)CCC3)[C@H]1CC[C@H](OC(=O)C(O)(c2cccs2)c2cccs2)CC1 [listing 1 of 3 here]
M2 receptor
  IC50: 0.062 nM

## CN(CCCn1nnc2cc(CNC[C@H](O)c3ccc(O)c4[nH]c(=O)ccc34)c3c(c21)CCC3)[C@H]1CC[C@H](OC(=O)C(O)(c2cccs2)c2cccs2)CC1 [listing 2 of 3 here]
[1]; ~81% RH (saturated potassium bromide solution)/room temperature
  TGA weight loss (%, 150° C): 10.4%
[1]; ~94% RH (saturated potassium nitrate solution)/room temperature
  TGA weight loss (%, 150° C): 9.9%
[2]; 25° C./80% RH
  moisture adsorption: 7.84%
[2]; XRPD before and after DVS test
  crystal form after the DVS test (XRPD): remained unchanged

## CN(CCCn1nnc2cc(CNC[C@H](O)c3ccc(O)c4[nH]c(=O)ccc34)c3c(c21)CCC3)[C@H]1CC[C@H](OC(=O)C(O)(c2cccs2)c2cccs2)CC1 [listing 3 of 3 here]
[3]
  crystal form after placement (XRPD): remained unchanged
